Results: patent publication US20030235634A1, “Extraction of non-polar isothiocyanates from plants and dietary supplements containing same” (ACCESS BUSINESS GROUP INTERNATIONAL LLC., priority 2002, published 2003)
Read-outs that look alike come from different tables or passages of the source.

Key:
[1] = Dissolution of purchased BITC and PEITC in safflower oil (how much can be stored in the oil); type: physicochemical; conditions: composition in safflower oil (78.91 % volume oil)
Excerpt: BITC and PEITC were purchased from Aldrich (Sigma-Aldrich, Milwaukee, Wis.) and dissolved in safflower oil to determine how much of the non-polar isothiocyanates could be stored in the oil.

[2] = Solubility in water
Method: Garden cress powder, prepared by drying at 45° C. and containing about […] BITC, and watercress powder, prepared by drying at 50° C. and containing about […] PEITC, were mixed in equal parts. From the mixture, 500 mg were added to a 50 mL conical vial to which 10 mL of water was added and the mixture homogenized for 2 minutes. The mixture was extracted twice with 10 mL safflower oil using homogenization at level 6 (Omni 5000 Mixer) for one minute and centrifuged for 3 minutes at 8,000×g. The oil fractions were collected, pooled and the volume brought up to 25 mL.

Row | Structure (SMILES) | % Volume [1] [% Volume] | ppm (mg/L) [1] | solubility in water [2] | solubility in water ([2]; water, no test described)
1 | S=C=NCCc1ccccc1 [PEITC, phenethyl isothiocyanate] | 9.59 | 104,540 ppm (mg/L) | not soluble in water | –
2 | S=C=NCc1ccccc1 [BITC, Benzyl isothiocyanate] | 11.50 | 129,430 ppm (mg/L) | – | not soluble in water
